Measured values reported in patent publication US20250099407A1, “2-AMINO BENZOPHENONE DERIVATIVES FOR TARGETED FERROPTOSIS INDUCTION IN CANCER THERAPY” (INDIAN INSTITUTE OF TECHNOLOGY KANPUR, priority 2023, published 2025).

What was measured:
U2OS = assay: Cell viability, CellTiter-Glo assay, U2OS; type: cell-based; settings: Homo sapiens
Procedure: (§1) The viability of screened cancer cells was recorded using a luminescence-based CellTiter-Glo® assay for the ATP quantification. The screening concentration of the molecule ranged from 100/10 μM to 45/4.5 nM with an 8-point-3-fold dilution series in DMEM media (>0.1% DMSO as control). Each experiment was conducted in more than two biological replicates with three technical replicates. The error bar is a representation of standard deviation among the technical replicates.
as §1, with “IITK3002” for “the molecule”, “10” for “100/10”, “4.5” for “45/4.5”
(§2) a. […] In parallel, we have also synthesized the bromoacetamide (IITK3002) version of the lead molecules which is slightly more reactive with thiol nucleophiles when compared to chlorooacetamide warheads as depicted in FIG. 13. […] In addition, we also evaluated the molecules' antiproliferative potency against a panel of twelve different cancer phenotypes. The set of cancer cell lines included liver, breast, colon, myeloma, bone, blood, skin, brain and prostate lineages (FIG. 2, 3, Table 1).

A549 = assay: Cell viability, A549; type: cell-based; settings: Homo sapiens
22Rv1 = assay: Cell viability, CellTiter-Glo assay, 22Rv1; type: cell-based; settings: Homo sapiens, 22Rv1, 22Rv1, cell viability
Procedure: as §1
as §1, with “IITK3002” for “the molecule”, “10” for “100/10”, “4.5” for “45/4.5”
as §2

PC3 = assay: Cell viability, CellTiter-Glo assay, PC3; type: cell-based; settings: Homo sapiens, PC-3, PC3, cell viability
Procedure: as §1
as §1, with “IITK3002” for “the molecule”, “10” for “100/10”, “4.5” for “45/4.5”
as §2

Huh-7 cells = assay: Cell viability, luminescence-based CellTiter-Glo assay, Huh-7 cells; settings: Homo sapiens, Huh-7, Huh-7 cells, cell viability; read-out: EC50 Huh-7
Procedure: The viability of Huh-7 cells was recorded using a luminescence-based CellTiter-Glo® assay. The screening concentration of the molecules were 10 μM with or without Fer-1 (10 μM) in DMEM media (>0.1% DMSO as control).
Ferroptosis is a unique form of cell death mechanism mediated by the accumulation of lipid peroxides in cells which is distinct from healthy cells' apoptosis, a programmed […] route. We aimed to exploit the induction of ferroptosis in cancer cells using covalent small molecules as a potential strategy for cancer therapeutic development. […] We used various amide bond formation chemistry to construct the library members and these molecules are well characterized by various spectroscopic and mass spectrometry techniques. Once confirmed, these thiol reactive library members were screened in a cancer cell viability assay in combination with ferrostatin-1 (Fer-1), a ferroptosis inhibitor as depicted in FIG. 11. […] We have screened a total of ˜50 electrophilic small molecules to prevent the proliferation of hepatocellular carcinoma (Huh-7 cells) in combination with and without Fer-1. From our initial screening, we identified haloacetamides of 2-aminoalkylbenzophenone as potential ferroptosis inducers as depicted in FIG. 11.
as §1
The viability of screened cancer cells was recorded using a luminescence-based CellTiter-Glo® assay for the ATP quantification. The screening concentration of IITK3002 ranged from 10 μM to 4.5 nM with an 8-point-3-fold dilution series in DMEM media (>0.1% DMSO as control). Each experiment was conducted in more than two biological replicates with three technical replicates. The error bar is a representation of standard deviation among the technical replicates. […]
a. Electrophilic Warhead Optimization: Once we identified 2-benzoylphenyl-a-haloacetamide as the lead scaffold, we have investigated the structure-activity-relationship analysis to precisely capture the effect of various chemical handles of the scaffold and use the knowledge to improve the overall potency and selectivity of this molecule to prevent cancer cell proliferation. First, we changed the haloacetamide electrophilic unit with various other electrophiles with a characteristic high, moderate, and weak reactivity with thiols when compared to chloroacetamide. Therefore, we opted vinylsulfonamide (highly reactivity), acrylamide (moderate reactivity), and phenoxyacetamides (weak reactivity warheads) for incorporation in the place of haloacetamide warhead of the top hit scaffold. Once synthesized, these molecules were evaluated to assess their antiproliferative potency against Huh-7 cells (Table 2). As expected, the introduction of weakly reactive electrophilic warheads, phenoxyactamides, completely lost the activity against Huh-7 cells. […] Perhaps, the secondary interactions of the electrophilic warhead with the target proteins might play additional roles. Therefore, we shifted our focus to optimize the rest of the core scaffold for further SAR analysis. b. Role of N-Substitutions: Next, we synthesized the NH-derivative of haloacetamides to capture the importance of N-alkylation on the activity of our hit molecule. […] Perhaps the hydrogen bonding induced planarity around the warhead influences the molecules' weakened potency. Conversely, the additional flexibility in the lead molecule (tertiary amide) might contribute to the strong antiproliferative activity of the hit molecule. […]

Compound | EC50 (U2OS) [µM] | EC50 (A549) [µM] | EC50 (22Rv1) [µM] | EC50 (PC3) [µM] | EC50 (Huh-7 cells) [µM]
CN(C(=O)COc1ccc(C(C)(C)C)cc1)c1ccccc1C(=O)c1ccccc1 [IITK3008, N-(2-benzoylphenyl)-2-(4-(tert-butyl)phenoxy)-N-methylacetamide] |  |  |  | 12.8 | > 20
O=C(CBr)Nc1ccc([N+](=O)[O-])cc1C(=O)c1ccccc1 [IITK3051, N-(2-benzoyl-4-nitrophenyl)-2-bromoacetamide] | > 20 | > 20 | > 20 | > 20 | 
O=C(c1ccccc1)c1ccccc1N(Cc1ccccc1)C(=O)COc1ccccc1 [IITK3036, N-(2-benzoylphenyl)-N-benzyl-2-phenoxyacetamide] | > 20 | > 20 | > 20 | > 20 | > 20
C=CCN(C(=O)COc1ccccc1)c1ccccc1C(=O)c1ccccc1 [IITK3020, N-allyl-N-(2-benzoylphenyl)-2-phenoxyacetamide] | > 20 | > 20 | > 20 | > 20 | 
O=C(CCl)Nc1ccccc1C(=O)c1ccccc1 [IITK3012, N-(2-benzoylphenyl)-2-chloroacetamide] | > 20 | > 20 | > 20 | > 20 | 
CC(C)N(C(=O)CCl)c1ccccc1C(=O)c1ccccc1 [IITK3028, N-(2-benzoylphenyl)-2-chloro-N-isopropylacetamide] | > 20 | > 20 | > 20 | > 20 | 19.6
C#CCN(C(=O)COc1ccc(F)cc1)c1ccccc1C(=O)c1ccccc1 [IITK3030, N-(2-benzoylphenyl)-2-(4-fluorophenoxy)-N-(prop-2-yn-1-yl)acetamide] | > 20 | > 20 | > 20 | > 20 | > 100
CC(C)(C)c1ccc(OCC(=O)N(Cc2ccccc2)c2ccccc2C(=O)c2ccccc2)cc1 [IITK3038, N-(2-benzoylphenyl)-N-benzyl-2-(4-(tert-butyl)phenoxy)acetamide] | > 20 | > 20 | > 20 | > 20 | > 100
C#CCN(C(=O)COc1ccc(Br)cc1)c1ccccc1C(=O)c1ccccc1 [IITK3033, N-(2-benzoylphenyl)-2-(4-bromophenoxy)-N-(prop-2-yn-1-yl)acetamide] | > 20 | > 20 | > 20 | > 20 | > 20

Further lines, results first:

EC50 (U2OS) [µM] | EC50 (A549) [µM] | EC50 (22Rv1) [µM] | EC50 (PC3) [µM] | EC50 (Huh-7 cells) [µM] | Compound
> 20 | > 20 | > 20 | > 20 | > 20 | O=C(c1ccccc1)c1ccccc1N(Cc1ccccc1)C(=O)COc1ccc(F)cc1 [IITK3037, N-(2-benzoylphenyl)-N-benzyl-2-(4-fluorophenoxy)acetamide]
> 100 | 20 | > 20 | > 20 |  | C=CCN(C(=O)COc1ccc(C(C)(C)C)cc1)c1ccccc1C(=O)c1ccccc1 [IITK3023, N-allyl-N-(2-benzoylphenyl)-2-(4-(tert-butyl)phenoxy)acetamide]
> 20 | > 20 | > 20 | > 20 | > 20 | C#CCN(C(=O)COc1ccccc1)c1ccccc1C(=O)c1ccccc1 [IITK3029, N-(2-benzoylphenyl)-2-phenoxy-N-(prop-2-yn-1-yl)acetamide]
> 20 | > 20 | > 20 | > 20 | > 20 | CN(C(=O)COc1ccc(F)cc1)c1ccccc1C(=O)c1ccccc1 [IITK3006, N-(2-benzoylphenyl)-2-(4-fluorophenoxy)-N-methylacetamide]
 |  | 3.85 |  |  | O=C(c1ccccc1)c1ccccc1N(Cc1ccccc1)C(=O)CCl [IITK3034, N-(2-benzoylphenyl)-N-benzyl-2-chloroacetamide]
> 20 | > 20 | > 20 | > 20 |  | C=CS(=O)(=O)N(C)c1ccccc1C(=O)c1ccccc1 [IITK3011, N-(2-benzoylphenyl)-N-methylethenesulfonamide]
> 20 | > 20 | > 20 | > 20 | > 20 | CN(C(=O)COc1ccc(Br)cc1)c1ccccc1C(=O)c1ccccc1 [IITK3009, N-(2-benzoylphenyl)-2-(4-bromophenoxy)-N-methylacetamide]
> 20 | > 20 | > 20 | > 20 |  | C=CC(=O)N(C)c1ccccc1C(=O)c1ccccc1 [IITK3010, N-(2-benzoylphenyl)-N-methylacrylamide]
0.19 | 0.24 | 0.77 | 0.53 |  | O=C(c1ccccc1)c1ccccc1N(Cc1ccccc1)C(=O)CBr [IITK3035, N-(2-benzoylphenyl)-N-benzyl-2-bromoacetamide]
